# Assays:
# Klebsiella aerogenes [1] = test: Antibacterial activity against Enterobacter aerogenes 15-4 assessed as reduction in bacterial growth; assay type: functional
# Pseudomonas aeruginosa [2] = test: Antibacterial activity against Carbapenem- sensitive Pseudomonas aeruginosa 17-9 assessed as reduction in bacterial growth; assay type: functional
# Escherichia coli [3] = test: Antibacterial activity against ESBLs negative Carbapenem-sensitive Escherichia coli 17-20 assessed as reduction in bacterial growth; assay type: functional
# Klebsiella pneumoniae [4] = test: Antibacterial activity against Klebsiella pneumoniae ATCC 700603 assessed as reduction in bacterial growth; assay type: functional
# Klebsiella aerogenes [5] = test: Bactericidal activity against Enterobacter aerogenes 17-3 assessed as reduction in bacterial growth in the presence of avibactam; assay type: functional
# Pseudomonas aeruginosa [6] = test: Bactericidal activity against Pseudomonas aeruginosa ATCC 27853 assessed as reduction in bacterial growth; assay type: functional
# Escherichia coli [7] = test: Antibacterial activity against Escherichia coli 15-5 overexpressing extended spectrum beta-lactamases assessed as reduction in bacterial growth in the presence of Avibactam; assay type: functional
# Klebsiella pneumoniae [8] = test: Antibacterial activity against Carbapenem- resistant Klebsiella pneumoniae KR 15-13 assessed as reduction in bacterial growth in the presence of Avibactam; assay type: functional
# Acinetobacter baumannii [9] = test: Antibacterial activity against Carbapenem- resistant Acinetobacter baumannii 17-12 assessed as reduction in bacterial growth in the presence of Avibactam; assay type: functional
# Klebsiella pneumoniae [10] = test: Antibacterial activity against Carbapenem- resistant Klebsiella pneumoniae KR 15-8 assessed as reduction in bacterial growth
# Pseudomonas aeruginosa [11] = test: Bactericidal activity against Carbapenem- resistant Pseudomonas aeruginosa 17-5 assessed as reduction in bacterial growth in the presence of avibactam; assay type: functional
# Klebsiella pneumoniae [12] = test: Antibacterial activity against Carbapenem- resistant Klebsiella pneumoniae KR 15-4 assessed as reduction in bacterial growth in the presence of Avibactam; assay type: functional
# Klebsiella pneumoniae [13] = test: Antibacterial activity against Carbapenem- resistant Klebsiella pneumoniae KR 15-4 assessed as reduction in bacterial growth
# Acinetobacter baumannii [14] = test: Antibacterial activity against Multidrug resistant Acinetobacter baumannii AR 15-2 assessed as reduction in bacterial growth in the presence of Avibactam; assay type: functional
# Klebsiella aerogenes [15] = test: Bactericidal activity against Enterobacter aerogenes 17-1 assessed as reduction in bacterial growth in the presence of avibactam; assay type: functional
# Klebsiella pneumoniae [16] = test: Antibacterial activity against Carbapenem- resistant Klebsiella pneumoniae KR 15-11 assessed as reduction in bacterial growth in the presence of Avibactam; assay type: functional
# Klebsiella pneumoniae [17] = test: Antibacterial activity against ESBLs positive Carbapenem-sensitive Klebsiella pneumoniae 17-12 assessed as reduction in bacterial growth in the presence of Avibactam; assay type: functional
# Klebsiella pneumoniae [18] = test: Antibacterial activity against ESBLs negative Carbapenem-sensitive Klebsiella pneumoniae 17-16 assessed as reduction in bacterial growth
# Escherichia coli [19] = test: Bactericidal activity against ESBLs negative Carbapenem--sensitive Escherichia coli 17-9 assessed as reduction in bacterial growth; assay type: functional
# Klebsiella pneumoniae [20] = test: Antibacterial activity against Carbapenem- resistant Klebsiella pneumoniae KR 15-9 assessed as reduction in bacterial growth in the presence of Avibactam; assay type: functional
# Pseudomonas aeruginosa [21] = test: Antibacterial activity against Carbapenem- sensitive Pseudomonas aeruginosa 17-9 assessed as reduction in bacterial growth in the presence of Avibactam; assay type: functional
# Escherichia coli [22] = test: Bactericidal activity against Escherichia coli NCTC 13353 assessed as reduction in bacterial growth; assay type: functional
# Klebsiella pneumoniae [23] = test: Antibacterial activity against ESBLs negative Carbapenem-sensitive Klebsiella pneumoniae 17-18 assessed as reduction in bacterial growth in the presence of Avibactam; assay type: functional
# Acinetobacter baumannii [24] = test: Antibacterial activity against Carbapenem- resistant Acinetobacter baumannii 17-2 assessed as reduction in bacterial growth
# Acinetobacter baumannii [25] = test: Bactericidal activity against Acinetobacter baumannii NCTC 13304 assessed as reduction in bacterial growth in the presence of avibactam; assay type: functional
# Acinetobacter baumannii [26] = test: Bactericidal activity against Carbapenem- resistant Acinetobacter baumannii 17-6 assessed as reduction in bacterial growth; assay type: functional
# Pseudomonas aeruginosa [27] = test: Antibacterial activity against Carbapenem- resistant Pseudomonas aeruginosa 17-5 assessed as reduction in bacterial growth
# Klebsiella aerogenes [28] = test: Bactericidal activity against Enterobacter aerogenes 15-3 assessed as reduction in bacterial growth in the presence of avibactam; assay type: functional
# Pseudomonas aeruginosa [29] = test: Antibacterial activity against Carbapenem- resistant Pseudomonas aeruginosa 17-8 assessed as reduction in bacterial growth in the presence of Avibactam; assay type: functional
# Pseudomonas aeruginosa [30] = test: Bactericidal activity against Pseudomonas aeruginosa ATCC 27853 assessed as reduction in bacterial growth in the presence of avibactam; assay type: functional
# Klebsiella pneumoniae [31] = test: Antibacterial activity against ESBLs positive Carbapenem-sensitive Klebsiella pneumoniae 17-8 assessed as reduction in bacterial growth in the presence of Avibactam; assay type: functional
# Pseudomonas aeruginosa [32] = test: Antibacterial activity against Carbapenem- sensitive Pseudomonas aeruginosa 17-26 assessed as reduction in bacterial growth in the presence of Avibactam; assay type: functional
# Acinetobacter baumannii [33] = test: Antibacterial activity against Acinetobacter baumannii NCTC 13304 assessed as reduction in bacterial growth in the presence of Avibactam; assay type: functional
# Acinetobacter baumannii [34] = test: Antibacterial activity against Multidrug resistant Acinetobacter baumannii AR 15-3 assessed as reduction in bacterial growth in the presence of Avibactam; assay type: functional
# Escherichia coli [35] = test: Antibacterial activity against Escherichia coli 15-3 overexpressing extended spectrum beta-lactamases assessed as reduction in bacterial growth; assay type: functional
# Enterobacter cloacae [36] = test: Bactericidal activity against Enterobacter cloacae 17-2 assessed as reduction in bacterial growth in the presence of avibactam; assay type: functional
# Klebsiella pneumoniae [37] = test: Antibacterial activity against Klebsiella pneumoniae ATCC BAA-1705 assessed as reduction in bacterial growth in the presence of Avibactam; assay type: functional
# Klebsiella pneumoniae [38] = test: Antibacterial activity against Multidrug resistant Klebsiella pneumoniae KR 15-3 assessed as reduction in bacterial growth; assay type: functional
# Klebsiella pneumoniae [39] = test: Bactericidal activity against Klebsiella pneumoniae ATCC BAA-1705 assessed as reduction in bacterial growth; assay type: functional
# Enterobacter cloacae [40] = test: Antibacterial activity against Enterobacter cloacae 17-10 assessed as reduction in bacterial growth in the presence of Avibactam; assay type: functional
# Enterobacter cloacae [41] = test: Antibacterial activity against Enterobacter cloacae 17-2 assessed as reduction in bacterial growth
# Enterobacter cloacae [42] = test: Bactericidal activity against Enterobacter cloacae 17-3 assessed as reduction in bacterial growth in the presence of avibactam; assay type: functional
# Klebsiella pneumoniae [43] = test: Antibacterial activity against Carbapenem- resistant Klebsiella pneumoniae KR 15-10 assessed as reduction in bacterial growth in the presence of Avibactam; assay type: functional
# Pseudomonas aeruginosa [44] = test: Bactericidal activity against carbapenem-sensitive Pseudomonas aeruginosa 17-10 assessed as reduction in bacterial growth in the presence of avibactam; assay type: functional
# Enterobacter cloacae [45] = test: Antibacterial activity against Enterobacter cloacae 17-7 assessed as reduction in bacterial growth in the presence of Avibactam; assay type: functional
# Acinetobacter baumannii [46] = test: Antibacterial activity against Multidrug resistant Acinetobacter baumannii AR 15-4 assessed as reduction in bacterial growth in the presence of Avibactam; assay type: functional
# Klebsiella aerogenes [47] = test: Bactericidal activity against Enterobacter aerogenes 17-4 assessed as reduction in bacterial growth in the presence of avibactam; assay type: functional
# Enterobacter cloacae [48] = test: Antibacterial activity against Enterobacter cloacae 17-5 assessed as reduction in bacterial growth in the presence of Avibactam; assay type: functional
smiles,measurement,setting,value
C[C@@H](O)[C@H]1C(=O)N2C(C(=O)O)=C(S[C@@H]3CN[C@H](C(=O)N(C)C)C3)[C@H](C)[C@H]12 [MEROPENEM],MIC,Klebsiella aerogenes [1],< 0.03 µg/mL
same,MIC,Pseudomonas aeruginosa [2],0.25 µg/mL
same,MIC,Escherichia coli [3],< 0.03 µg/mL
CC(C)(O/N=C(\C(=O)N[C@@H]1C(=O)N2C(C(=O)[O-])=C(C[n+]3ccccc3)CS[C@H]12)c1csc(N)n1)C(=O)O [CEFTAZIDIME],MIC,Klebsiella pneumoniae [4],32 µg/mL
same,MBC,Klebsiella aerogenes [5],0.25 µg/mL
same,MBC,Pseudomonas aeruginosa [6],1 µg/mL
same,MIC,Escherichia coli [7],1 µg/mL
same,MIC,Klebsiella pneumoniae [8],1 µg/mL
same,MIC,Acinetobacter baumannii [9],8 µg/mL
same,MIC,Klebsiella pneumoniae [10],> 64 µg/mL
same,MBC,Pseudomonas aeruginosa [11],> 16 µg/mL
same,MIC,Klebsiella pneumoniae [12],2 µg/mL
same,MIC,Klebsiella pneumoniae [13],> 64 µg/mL
same,MIC,Acinetobacter baumannii [14],8 µg/mL
same,MBC,Klebsiella aerogenes [15],1 µg/mL
same,MIC,Klebsiella pneumoniae [16],2 µg/mL
same,MIC,Klebsiella pneumoniae [17],1 µg/mL
same,MIC,Klebsiella pneumoniae [18],2 µg/mL
same,MBC,Escherichia coli [19],4 µg/mL
same,MIC,Klebsiella pneumoniae [20],2 µg/mL
same,MIC,Pseudomonas aeruginosa [21],0.125 µg/mL
same,MBC,Escherichia coli [22],> 64 µg/mL
same,MIC,Klebsiella pneumoniae [23],0.125 µg/mL
same,MIC,Acinetobacter baumannii [24],> 64 µg/mL
same,MBC,Acinetobacter baumannii [25],8 µg/mL
same,MBC,Acinetobacter baumannii [26],> 64 µg/mL
same,MIC,Pseudomonas aeruginosa [27],64 µg/mL
same,MBC,Klebsiella aerogenes [28],4 µg/mL
same,MIC,Pseudomonas aeruginosa [29],16 µg/mL
same,MBC,Pseudomonas aeruginosa [30],4 µg/mL
same,MIC,Klebsiella pneumoniae [31],2 µg/mL
same,MIC,Pseudomonas aeruginosa [32],1 µg/mL
same,MIC,Acinetobacter baumannii [33],8 µg/mL
same,MIC,Acinetobacter baumannii [34],16 µg/mL
same,MIC,Escherichia coli [35],8 µg/mL
same,MBC,Enterobacter cloacae [36],1 µg/mL
same,MIC,Klebsiella pneumoniae [37],4 µg/mL
same,MIC,Klebsiella pneumoniae [38],> 64 µg/mL
same,MBC,Klebsiella pneumoniae [39],> 64 µg/mL
same,MIC,Enterobacter cloacae [40],1 µg/mL
same,MIC,Enterobacter cloacae [41],64 µg/mL
same,MBC,Enterobacter cloacae [42],0.25 µg/mL
same,MIC,Klebsiella pneumoniae [43],2 µg/mL
same,MBC,Pseudomonas aeruginosa [44],0.5 µg/mL
same,MIC,Enterobacter cloacae [45],2 µg/mL
same,MIC,Acinetobacter baumannii [46],8 µg/mL
same,MBC,Klebsiella aerogenes [47],0.5 µg/mL
same,MIC,Enterobacter cloacae [48],1 µg/mL
Nc1nc(/C(=N/OCc2cc(=O)c(O)cn2O)C(=O)N[C@@H]2C(=O)N3C(C(=O)O)=CCS[C@H]23)cs1,MIC,Klebsiella aerogenes [1],4 µg/mL
same,MIC,Klebsiella pneumoniae [4],64 µg/mL
same,MBC,Klebsiella aerogenes [5],0.5 µg/mL
same,MBC,Pseudomonas aeruginosa [6],16 µg/mL
same,MIC,Escherichia coli [7],0.5 µg/mL
same,MIC,Klebsiella pneumoniae [8],2 µg/mL
same,MIC,Acinetobacter baumannii [9],16 µg/mL
same,MIC,Klebsiella pneumoniae [10],> 64 µg/mL
same,MIC,Pseudomonas aeruginosa [2],4 µg/mL
same,MBC,Pseudomonas aeruginosa [11],32 µg/mL
same,MIC,Klebsiella pneumoniae [12],4 µg/mL
same,MIC,Klebsiella pneumoniae [13],> 64 µg/mL
same,MIC,Acinetobacter baumannii [14],16 µg/mL
same,MBC,Klebsiella aerogenes [15],4 µg/mL
same,MIC,Klebsiella pneumoniae [16],1 µg/mL
same,MIC,Klebsiella pneumoniae [17],0.125 µg/mL
same,MIC,Klebsiella pneumoniae [18],0.5 µg/mL
same,MBC,Escherichia coli [19],2 µg/mL
same,MIC,Klebsiella pneumoniae [20],2 µg/mL
same,MIC,Pseudomonas aeruginosa [21],2 µg/mL
same,MBC,Escherichia coli [22],> 64 µg/mL
same,MIC,Klebsiella pneumoniae [23],0.06 µg/mL
same,MIC,Escherichia coli [3],0.25 µg/mL
same,MIC,Acinetobacter baumannii [24],> 64 µg/mL
same,MBC,Acinetobacter baumannii [25],16 µg/mL
same,MBC,Acinetobacter baumannii [26],> 64 µg/mL
same,MIC,Pseudomonas aeruginosa [27],64 µg/mL
same,MBC,Klebsiella aerogenes [28],16 µg/mL
same,MIC,Pseudomonas aeruginosa [29],16 µg/mL
same,MBC,Pseudomonas aeruginosa [30],4 µg/mL
same,MIC,Klebsiella pneumoniae [31],0.5 µg/mL
same,MIC,Pseudomonas aeruginosa [32],1 µg/mL
same,MIC,Acinetobacter baumannii [33],16 µg/mL
same,MIC,Acinetobacter baumannii [34],8 µg/mL
same,MIC,Escherichia coli [35],64 µg/mL
same,MBC,Enterobacter cloacae [36],8 µg/mL
same,MIC,Klebsiella pneumoniae [37],2 µg/mL
same,MIC,Klebsiella pneumoniae [38],> 64 µg/mL
same,MBC,Klebsiella pneumoniae [39],> 64 µg/mL
same,MIC,Enterobacter cloacae [40],0.5 µg/mL
same,MIC,Enterobacter cloacae [41],> 64 µg/mL
same,MBC,Enterobacter cloacae [42],8 µg/mL
same,MIC,Klebsiella pneumoniae [43],1 µg/mL
same,MBC,Pseudomonas aeruginosa [44],4 µg/mL
same,MIC,Enterobacter cloacae [45],2 µg/mL
same,MIC,Acinetobacter baumannii [46],8 µg/mL
same,MBC,Klebsiella aerogenes [47],1 µg/mL
same,MIC,Enterobacter cloacae [48],4 µg/mL

# Reference: ChEMBL document CHEMBL4813981, “Synthesis and in vitro antibacterial activity of new aminothiazole-oximepiperidone cephalosporins” (2021)
